Assay results: patent US11155586B2, “Cystine knot scaffold platform” (Genentech, Inc., priority 2015, dated 2021)
Positions of bridges follow the written chain, without caps; N, C: chain ends. Non-standard residues stand in square brackets, D forms with d. Residues, ends and D or L forms follow the SMILES beside them. 2Nal = N[C@@H](Cc1ccc2ccccc2c1)C(=O)O

Biological target: T1, hVEGF-A (Homo sapiens, UniProt P15692)
T1 sequence (P15692 207-395): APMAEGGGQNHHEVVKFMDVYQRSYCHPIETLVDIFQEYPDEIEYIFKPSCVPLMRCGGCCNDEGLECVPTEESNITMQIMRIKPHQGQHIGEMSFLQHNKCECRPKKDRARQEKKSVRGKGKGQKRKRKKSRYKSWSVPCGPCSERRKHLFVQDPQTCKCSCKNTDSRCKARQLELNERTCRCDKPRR
Experiment: KDR-CHO VEGF assay to determine cellular IC50 (VEGF mediated Tyr phosphorylation of KDR)
Type: cell-based
Procedure: KDR-CHO cells (CHO cells stably transfected with gD tagged-KDR) were grown in cell growth medium (DMEM/Ham's F-12, 10% diafiltered FBS (GIBCO catalog no. 26400), 25 mM HEPES, 2 mM L-GLUTAMAX™). For VEGF stimulation assay, 5×10^4 cells/well were plated in 100 μl of cell plating medium (DMEM/Ham's F-12, 0.2% BSA, 0.25% diafiltered FBS, 25 mM HEPES, 2 mM L-GLUTAMAX™) in 96-well tissue culture plate and incubated at 37° C. overnight. The medium was replaced with 100 I1 of serum-free cell stimulation medium (DMEM/Ham's F-12, 0.5% BSA, 25 mM HEPES) and cells were incubated at 37° C. for 2 hr. One hour before stimulation, the medium was replaced with 50 I1 of serum-free cell stimulation medium. Concurrently, VEGF (50 ng/ml for hVEGF, 100 ng/ml for mVEGF and rVEGF) was pre-incubated with titrated amount of CKP or anti-VEGF in 50 μl of serum-free cell stimulation medium at 37° C. for 1 hour and added to the cells. The cells were stimulated for 15 min at 37 C and the medium is removed. The cells were lysed with 130 I1 of ice-cold cell lysis buffer (150 mM NaCl, 50 mM HEPES, 0.5% Triton-X 100, HALT protease and phosphatase inhibitor cocktail (ThermoFisher Scientific, Inc. catalog no. 78444), 5 mM EDTA). VEGF mediated Tyr phosphorylation of KDR was determined by ELISA-based assay. Briefly, MAXISORP™ 96 well plates (ThermoFisher Scientific, Inc. catalog no. 439454) were coated with 100 I1 of anti-gD antibody diluted in PBS (1 μg/ml) at 4° C. overnight and washed three times with washing buffer (PBS, 0.05% TWEEN®20, pH 7.4). The plates were blocked with 300 I1 of blocking buffer (PBS, 0.5% BSA) at room temperature for 1 hour followed by washing three times with washing buffer. The above KDR-CHO cell lysate (100 μl) was added to each well and incubated at room temperature for 2 hours. The plates were washed four times with washing buffer followed by incubation with 100 I1 of 0.5 μg/ml biotin-conjugated anti-phosphotyrosine (clone 4G10, Millipore catalog no. 16-103) in blocking buffer at room temperature for 2 hours. After washing four times, the plates were incubated with 100 I1 of HRP-conjugated streptavidin in blocking buffer at room temperature for 30 min. After washing four times, the plates were developed with 100 I1 of TMB substrate (BD Biosciences) at room temperature for 20-30 min and stopped by addition of 50 μl of H2SO4 solution. The optical density of each well was determined using a microplate reader set to 450 nm.

Compound	FOLD IMPROVEMENT RELATIVE TO VARIANT 9.54.90 (Table 36, from cellular IC50)	FOLD IMPROVEMENT RELATIVE TO VARIANT 9.54.90 (Table 38, from cellular IC50)	cellular potency relative to VEGF_CKP9.54.90 (Table 38)
CC[C@H](C)[C@H](NC(=O)[C@@H]1CSSC[C@H](NC(=O)CN)C(=O)N[C@@H](CC(=O)O)C(=O)N[C@@H](C(C)C)C(=O)N[C@@H](CCSC)C(=O)N[C@@H](CCC(N)=O)C(=O)N2CCC[C@H]2C(=O)N[C@@H](Cc2ccc(O)cc2)C(=O)N[C@@H](Cc2c[nH]c3ccccc23)C(=O)NCC(=O)N[C@H]2CSSC[C@H](NC(=O)[C@H](CC(=O)O)NC(=O)[C@H]([C@@H](C)CC)NC(=O)[C@H](CC(=O)O)NC(=O)[C@@H]3CCCN3C(=O)CNC2=O)C(=O)N[C@@H](CC(C)C)C(=O)N[C@@H](CO)C(=O)N[C@@H](CC(N)=O)C(=O)N1)C(=O)N[C@H]1CSSC[C@@H](C(=O)NCC(=O)O)NC(=O)[C@H](CO)NC(=O)[C@H](CC(N)=O)NC(=O)[C@H](Cc2ccc(O)cc2)NC(=O)[C@H](Cc2c[nH]c3ccccc23)NC(=O)[C@H](Cc2c[nH]cn2)NC1=O [9.63.12.12] (H-GCDVMQPYWGCGPDIDCLSNCICHWYNSCG-OH; disulfide 2-21, 11-17, 23-29; N-terminus and C-terminus assumed)	2.41	–	–
CC[C@H](C)[C@H](NC(=O)[C@@H]1CSSC[C@H](NC(=O)CN)C(=O)N[C@@H](CC(N)=O)C(=O)N[C@@H]([C@@H](C)CC)C(=O)N[C@@H](CCSC)C(=O)N[C@@H](CC(C)C)C(=O)N2CCC[C@H]2C(=O)N[C@@H](Cc2ccccc2)C(=O)N[C@@H](Cc2c[nH]c3ccccc23)C(=O)NCC(=O)N[C@H]2CSSC[C@H](NC(=O)[C@H](CCC(=O)O)NC(=O)[C@H](Cc3ccccc3)NC(=O)[C@H](CC(=O)O)NC(=O)[C@H](CCCNC(=N)N)NC(=O)CNC2=O)C(=O)N[C@@H](CCSC)C(=O)N[C@@H](CC(N)=O)C(=O)N[C@@H](CCC(N)=O)C(=O)N1)C(=O)N[C@H]1CSSC[C@@H](C(=O)NCC(=O)O)NC(=O)[C@H](CO)NC(=O)[C@H](CCC(N)=O)NC(=O)[C@H](Cc2ccc(O)cc2)NC(=O)[C@H](Cc2ccc(O)cc2)NC(=O)[C@H](CCC(N)=O)NC1=O [9.54.90.13] (H-GCNIMLPFWGCGRDFECMNQCICQYYQSCG-OH; disulfide 2-21, 11-17, 23-29; N-terminus and C-terminus assumed)	1.41	1.41	–
CC[C@H](C)[C@H](NC(=O)[C@@H]1CSSC[C@H](NC(=O)CN)C(=O)N[C@@H](CC(N)=O)C(=O)N[C@@H]([C@@H](C)CC)C(=O)N[C@@H](CCSC)C(=O)N[C@@H](CC(C)C)C(=O)N2CCC[C@H]2C(=O)N[C@@H](Cc2ccccc2)C(=O)N[C@@H](Cc2c[nH]c3ccccc23)C(=O)NCC(=O)N[C@H]2CSSC[C@H](NC(=O)[C@H](CCC(=O)O)NC(=O)[C@H](Cc3ccccc3)NC(=O)[C@H](CC(=O)O)NC(=O)[C@H](CCCNC(=N)N)NC(=O)CNC2=O)C(=O)N[C@@H](CCSC)C(=O)N[C@@H](CCC(N)=O)C(=O)N[C@@H]([C@@H](C)O)C(=O)N1)C(=O)N[C@H]1CSSC[C@@H](C(=O)NCC(=O)O)NC(=O)[C@H](CO)NC(=O)[C@H](CCC(N)=O)NC(=O)[C@H](Cc2ccc(O)cc2)NC(=O)[C@H](Cc2ccc(O)cc2)NC(=O)[C@H](CCC(N)=O)NC1=O [9.54.90.25] (H-GCNIMLPFWGCGRDFECMQTCICQYYQSCG-OH; disulfide 2-21, 11-17, 23-29; N-terminus and C-terminus assumed)	1.07	–	–
CC[C@H](C)[C@H](NC(=O)[C@@H]1CSSC[C@H](NC(=O)CN)C(=O)N[C@@H](CC(N)=O)C(=O)N[C@@H]([C@@H](C)CC)C(=O)N[C@@H](CCSC)C(=O)N[C@@H](CC(C)C)C(=O)N2CCC[C@H]2C(=O)N[C@@H](Cc2ccccc2)C(=O)N[C@@H](Cc2c[nH]c3ccccc23)C(=O)NCC(=O)N[C@H]2CSSC[C@H](NC(=O)[C@H](CCC(=O)O)NC(=O)[C@H](Cc3ccccc3)NC(=O)[C@H](CC(=O)O)NC(=O)[C@H](CCCNC(=N)N)NC(=O)CNC2=O)C(=O)N[C@@H](CCSC)C(=O)N[C@@H](CCC(=O)O)C(=O)N[C@@H](CCC(N)=O)C(=O)N1)C(=O)N[C@H]1CSSC[C@@H](C(=O)NCC(=O)O)NC(=O)[C@H](CO)NC(=O)[C@H](CCC(N)=O)NC(=O)[C@H](Cc2ccc(O)cc2)NC(=O)[C@H](Cc2ccc(O)cc2)NC(=O)[C@H](CCC(N)=O)NC1=O [9.54.90.67] (H-GCNIMLPFWGCGRDFECMEQCICQYYQSCG-OH; disulfide 2-21, 11-17, 23-29; N-terminus and C-terminus assumed)	1.23	1.23	–
CC[C@H](C)[C@@H]1NC(=O)[C@H](Cc2ccccc2)NC(=O)[C@@H]2CSSC[C@H](NC(=O)CNC(=O)[C@H](Cc3c[nH]c4ccccc34)NC(=O)[C@H](Cc3ccccc3)NC(=O)[C@@H]3CCCN3C(=O)[C@H](CC(C)C)NC(=O)[C@H](CCSC)NC(=O)[C@H]([C@@H](C)CC)NC(=O)[C@H](CC(N)=O)NC(=O)[C@@H](NC(=O)CN)CSSC[C@@H](C(=O)N[C@H](C(=O)N[C@H]3CSSC[C@@H](C(=O)NCC(=O)O)NC(=O)[C@H](CO)NC(=O)[C@H](CCC(N)=O)NC(=O)[C@H](Cc4ccc(O)cc4)NC(=O)[C@H](Cc4ccc(O)cc4)NC(=O)[C@H](CCC(N)=O)NC3=O)[C@@H](C)CC)NC(=O)[C@H](CC(N)=O)NC1=O)C(=O)NCC(=O)N[C@@H](CCCNC(=N)N)C(=O)N[C@@H](CC(=O)O)C(=O)N[C@@H](Cc1ccccc1)C(=O)N[C@@H](CCC(=O)O)C(=O)N2 [9.54.90.44] (H-GCNIMLPFWGCGRDFECFINCICQYYQSCG-OH; disulfide 2-21, 11-17, 23-29; N-terminus and C-terminus assumed)	1.16	–	–
CNIMLPYWGCGRDFECLAGCVCQYYQSC [VEGF_CKP9.54.90 F7Y A2G]	–	–	slight reduction of cellular potency
CC[C@H](C)[C@@H]1NC(=O)[C@H](CC(N)=O)NC(=O)[C@@H](NC(=O)CN)CSSC[C@@H](C(=O)N[C@H](C(=O)N[C@H]2CSSC[C@@H](C(=O)NCC(=O)O)NC(=O)[C@H](CO)NC(=O)[C@H](CCC(N)=O)NC(=O)[C@H](Cc3ccc(O)cc3)NC(=O)[C@H](Cc3ccc(O)cc3)NC(=O)[C@H](CCC(N)=O)NC2=O)C(C)C)NC(=O)CNC(=O)[C@H](C)NC(=O)[C@H](CC(C)C)NC(=O)[C@@H]2CSSC[C@H](NC(=O)CNC(=O)[C@H](Cc3ccc4ccccc4c3)NC(=O)[C@H](Cc3ccccc3)NC(=O)[C@@H]3CCCN3C(=O)[C@H](CC(C)C)NC(=O)[C@H](CCSC)NC1=O)C(=O)NCC(=O)N[C@@H](CCCNC(=N)N)C(=O)N[C@@H](CC(=O)O)C(=O)N[C@@H](Cc1ccccc1)C(=O)N[C@@H](CCC(=O)O)C(=O)N2 [9.54.90.Naph2] (H-GCNIMLPF[2Nal]GCGRDFECLAGCVCQYYQSCG-OH; disulfide 2-21, 11-17, 23-29; N-terminus and C-terminus assumed)	–	0.08	–
